In data set [1] the test system is HepG2 2.2.15 cells. As to conditions: 5 μg oligo A, 4 h; for cellular delivery compared with TMP: 0-300 μg porphyrin. Here is the method:
HepG2 2.2.15 cells were set up in 96 well plates as above. […] Complexes were added to the cultures and incubated at 37° C. for 4 h. The monolayers were washed three times with PBS and cells were lysed and counted as previously described.

For data set [2], the system named is oligo A. Briefly: Carboxymethyl (CM) ion exchange column binding of labelled oligo to cationic porphyrin. As to conditions: for porphyrin required for complete binding (saturation) of 60 μg oligo: 60 μg oligo A, 150 mM NaCl, 30 min room temperature, column binding assay.
Data set [3] deals with oligo A. As to conditions: 2.4 μg TMP, 150 mM NaCl. From the text: The interaction of nucleic acids with water soluble porphyrins can easily be followed by measuring the absorbance spectrum of the porphyrin in the range 350-450 nm. Porphyrins have a characteristic Soret peak in this wavelength range. […] Spectra were taken over the range 300-500 nm and the wavelength of the Soret peak plotted against the mass of EGS.

For data set [4], the system named is HepG2 2.2.15 cells. As to the kind of experiment: Delivery of TMP-complexed oligo to hepatoma cells in culture (cell-associated radioactivity). The class given is cell-based, human. As to the method: The complexed oligo was delivered to the cell cultures (6 replicates per variable), samples were removed for measurement of delivered radioactivity cpm and the cultures were returned to a 37° C. incubator for 4 h. Cultures were washed three times with 100 μl PBS and cells were lysed with SDS lysis buffer for extraction of nucleic acids (0.5% SDS, 10 mM Tris HCl pH 7.4, 10 mM EDTA, 10 mM NaCl, […] proteinase K). Lysates were counted to determine cell-associated radioactivity and nucleic acids were extracted from the lysate by phenol-chloroform treatment and ethanol precipitation.

Another data set deals with hepatoma cells. As to the kind of experiment: Timecourse of binding/uptake of TMP-delivered oligo to hepatoma cells. It counts as cell-based, human. As to conditions: 30 μg TMP and 10 μg oligo A. As to the method:
A timecourse experiment was carried out to determine the kinetics of binding/uptake of TMP-delivered oligonucleotides to hepatoma cells. […] A control timecourse was prepared without a delivery vehicle. Nucleic acids were recovered from one set of wells and were purified and analysed as described above.

Data set [5] deals with HepG2 2.2.15 cells. As to the kind of experiment: Fluorescence microscopy of delivered fluorescent oligo. The class given is cell-based, human. As to conditions: 100 μg fluorescent oligo, with 100 μg TMP or free, 1.5 h and 4 h. Here is the method:
A 30 mer oligo containing a 5′ fluorescein isothiocyanate molecule was synthesised, oligo C. Sterile glass coverslips were placed into the wells of 6-well plates and HepG2 2.2.15 cells were seeded into the wells at 5×10^4 cells/well. […] After 1.5 h and 4 h the coverslips were removed from the wells, dipped five times in PBS to remove excess oligo and were fixed in 4% formaldehyde in PBS. The coverslips were mounted in Slowfade (Molecular Probes, Inc.), and viewed on a Nikon Diaphot fluorescence microscope.

Data set [6] concerns HepG2 2.2.15 cells. As to the kind of experiment: Influence of serum on TMP delivery of EGS. The class given is cell-based, human. As to conditions: 30 μg TMP with 5 μg oligo A; 0, 4% or 10% serum; 4 h and 24 h. Here is the method:
Ninety-six well plates were set up as described above and allowed to grow until 80% confluence. Six replicate wells for each variable were washed twice with PBS. OPTI MEM (0 serum), 4% FCS in RPMI or 10% FCS in RPMI was added to the appropriate wells.
Oligo A was radiolabelled as above. These complexes were added to the wells (in replicates of 6) and after 4 h and 24 h the monolayers were washed 3 times with PBS. Cells were lysed as above and radioactivity counted.

For data set [7] the following is noted: 100 or 200 μg TMP with 100 μg oligo. Here is the method: An internally-labelled Oligo A was prepared by kinasing a component oligo with ^33P ATP and ligating this shorter oligo to another short component cold oligo to form the full-length version. […] After 2 h and 24 h the mice were killed by cervical dislocation, weighed and their livers removed. Livers were weighed, homogenized and a small sample counted by liquid scintillation counting.

The conditions of data set [8]: 200 μg oligo A with 100 μg TMP. Here is the method: After 8 h and 24 h mice were sacrificed and their livers quickly immersed in OCT medium (Tissue-Tek) and frozen in liquid N2. Thin sections were cut and sections were mounted on glass slides. Localisation of EGS in the liver section was determined by hybridisation of a ^33P-labelled antisense oligonucleotide complementary to the EGS sequence, and overlaying with a photographic emulsion. Background hybridisation was determined using a ^33P-labelled oligo with the same sequence as the EGS.

Another data set has as its system HBV. As to the kind of experiment: Anti HBV activity in cell culture (extracellular HBV DNA by dot-blot). It counts as cell-based, Hepatitis B virus. As to conditions: TMP concentration corresponding to 100 nM EGS.
The next data set deals with 9.5 kbp plasmid. As to conditions: 20 μg 9.5 kbp plasmid, 500 μg TMP.
In another data set the test system is HepG2 2.2.15. As to conditions: TMP concentration; 700 nM TMP: 100 nM EGS; daily treatments for 5 days.

Consider 3 molecules from US6620805B1, “Delivery of nucleic acids by porphyrins” (Yale University, priority 1996, dated 2003).

Like-named read-outs stand apart in the source and are kept apart here.

Method for HBV: The human hepatoma cell line HepG2 2.2.15 containing four copies of the HBV genome was used in this study. Cells were plated out (2×10^4/well) into 96 well plates and left for 5 days until confluent. […] The various dilutions were added to the cell monolayers (6 replicates per concentration). Daily treatments were carried out for 5 days changing the medium each day. After the fifth day cell culture supernatant was removed and assayed for extracellular HBV DNA levels by dot-blot using the method of Korba B. E. and Gerin J. L. (Use of a standardized cell culture assay to assess activities of nucleoside analogs against Hepatitis B virus replication. (1992) Antiviral Research 19, 55-70).

As for “Fe(III)-tetra-(N-methyl-4-pyridyl)-porphyrin chloride [Fe TMP]”, in the data set on HepG2 2.2.15 cells [1], the “cellular delivery compared with TMP” value is “does not affect cellular delivery by TMP up to a level of 30 μg” and the “porphyrin amount giving maximal nucleic acid uptake” value came to 30 µg. Moreover, the “influence of chelated Fe atom on nucleic acid binding” value with oligo A [2] (compared with TMP) was “behaved no differently than TMP alone”.

As for `C[N+](C)(C)c1ccc(-c2c3nc(c(-c4ccc([N+](C)(C)C)cc4)c4ccc([nH]4)c(-c4ccc([N+](C)(C)C)cc4)c4nc(c(-c5ccc([N+](C)(C)C)cc5)c5ccc2[nH]5)C=C4)C=C3)cc1` [TMA, meso tetra(trimethyl anilinium)porphine], in the data set with HepG2 2.2.15 cells [1], the “cellular delivery compared with TMP” value is “never as great as the TMP analogues” and the “porphyrin amount giving maximal nucleic acid uptake” value came to 11 µg. In addition, the “porphyrin required for complete binding (saturation) of 60 μg oligo” value with oligo A [2] is recorded as “approximately 100 μg”.

On to `C[n+]1ccc(-c2c3nc(c(-c4cc[n+](C)cc4)c4ccc([nH]4)c(-c4cc[n+](C)cc4)c4nc(c(-c5cc[n+](C)cc5)c5ccc2[nH]5)C=C4)C=C3)cc1.Cc1ccc(S(=O)(=O)[O-])cc1.Cc1ccc(S(=O)(=O)[O-])cc1.Cc1ccc(S(=O)(=O)[O-])cc1.Cc1ccc(S(=O)(=O)[O-])cc1` [TMP, Meso-tetra(N-methyl-4 pyridyl)porphine Tetra Tosylate], for which, in the data set on oligo A [3], the “mass of oligo at saturation (Soret peak reached 440 nm)” value is “approximately 3 μg”. Besides, the oligo delivered was found to be 0.5 µg in the data set on HepG2 2.2.15 cells [4] (1 μg delivered dose of oligo, 4 h); 2.8 µg in the data set with HepG2 2.2.15 cells [4] (5 μg delivered dose of oligo, 4 h); 4.8 µg with HepG2 2.2.15 cells [4] (10 μg delivered dose of oligo, 4 h). Further, the “TMP amount at saturation of binding or uptake” value in the data set with HepG2 2.2.15 cells [4] (1, 5 or 10 μg oligo A, 4 h) was found to be 30 µg. For the same molecule, the “maximum oligo cell associated” value in the data set with HepG2 2.2.15 cells [4] (3×10^4 cells) lay within 4 to 5 µg. Further, the added dose cell-associated entry in the data set with HepG2 2.2.15 cells [4] (all oligo doses, 4 h) is “Approximately 50%”. Moreover, the oligo cell-associated entry with hepatoma cells (8 h timepoint) is given as “greater than 75%”. Further, the “change in cell-associated material after 24 h” value with hepatoma cells (24 h) was “reduction in the material cell-associated”. In addition, the “intracellular location of fluorescence” value with HepG2 2.2.15 cells [5] is listed as “All nuclei of the cells in the TMP-delivered fluorescent oligo cultures appeared brightly fluorescent”. The material cell-associated in the data set with HepG2 2.2.15 cells [6] is reported as 50-70%. Further, the “persistence of delivered oligo in the liver” value in data set [7] is given as “persisted for 24 h”. In addition, in data set [7] (tail vein), the tolerability in mice entry is on record as “well tolerated”. The “hybridisation signal in liver after 24 h” value in data set [8] (24 h) was “level of signal is reduced after 24 h”. For the same molecule, in [8] (tail vein, mice), the “intrahepatic distribution of EGS” value is recorded as “substantial EGS present in all hepatocytes”. Besides, the “antiviral activity of TMP” value in the data set on HBV is recorded as “highly antiviral”. For the same molecule, the “plasmid bound to TMP” value in the data set on 9.5 kbp plasmid is 5 µg. In addition, the “hepatic EGS levels over time” value is listed as “declined slightly over time” (100 μg EGS with 20 μg TMP per mouse (lower TMP dose)) and “gradually increased” (100 μg EGS with 100 μg TMP per mouse (higher TMP dose)). The “EGS level in kidney over time” value (100 μg EGS with 100 or 20 μg TMP per mouse, 2-72 h) was “rapid initial peak in the kidney which declined over 72 h”. The “EGS levels in spleen, fat and serum” value (100 μg EGS with TMP, mice) is recorded as “negligible”. The “enhancement with the higher TMP level” value (100 versus 20 μg TMP, same amount of EGS) is on record as “two-fold”. Also, where the note is “mice, 100 μg EGS with 100 or 20 μg TMP”, the liver toxicity result was “No liver toxicity was detected”. The “concentration showing no toxicity” value with HepG2 2.2.15 was “less than 700 nM”. Also, the “porphyrin required for complete binding (saturation) of 60 μg oligo” value with oligo A [2] worked out at 60 µg. Moreover, the “stoichiometry of oligo:TMP at saturation” value in the data set on oligo A [2] (30 mer oligo, charge neutralisation) is on record as 4 molecules of oligo interact with 29 molecules of TMP.
